Read-outs that look alike come from different tables or passages of the source.
Tests used:
[1] = test system: .221A2.1 peptide-loaded target cells and cells expressing endogenous antigen; assay: Primary in vitro CTL induction with peptide-pulsed DC, CTL lytic activity by 51Cr release; type: cell-based, human; details: immunogenicity, positive/tested; for A2 native: CTL recognition of native (wild-type) target; for A2 peptide: CTL recognition of the peptide
Protocol: Testing was performed using the following methodology:
Cells that express an antigen of interest, or transfectants comprising the gene encoding the antigen of interest, can be used as target cells to test the ability of peptide-specific CTLs to recognize endogenous antigen.
The monocytes are purified by plating 10×10^6 PBMC/well in a 6-well plate. After 2 hours at 37° C., the non-adherent cells are removed by gently shaking the plates and aspirating the supernatants. The wells are washed a total of three times with 3 ml RPMI to remove most of the non-adherent and loosely adherent cells. Three ml of complete medium containing 50 ng/ml of GM-CSF and 1,000 U/ml of IL-4 are then added to each well. TNFα is added to the DCs on day 6 at 75 ng/ml and the cells are used for CTL induction cultures on day 7.
Induction of CTL with DC and Peptide: CD8+ T-cells are isolated by positive selection with Dynal imnmunomagnetic beads (Dynabeads® M-450) and the detacha-bead® reagent. Typically about 200-250×10^6 PBMC are processed to obtain 24×10^6 CD8^+T-cells (enough for a 48-well plate culture). Briefly, the PBMCs are thawed in RPMI with 30 μg/ml DNAse, washed once with PBS containing 1% human AB serum and resuspended in PBS/1% AB serum at a concentration of 20×10^6 cells/ml. The magnetic beads are washed 3 times with PBS/AB serum, added to the cells (140 μl beads/20×10^6 cells) and incubated for 1 hour at 4° C. with continuous mixing. The beads and cells are washed 4× with PBS/AB serum to remove the nonadherent cells and resuspended at 100×10^6 cells/ml (based on the original cell number) in PBS/AB serum containing 100 μl/ml detacha-bead® reagent and 30 μg/ml DNAse. The mixture is incubated for 1 hour at room temperature with continuous mixing. The beads are washed again with PBS/AB/DNAse to collect the CD8+ T-cells. The DC are collected and centrifuged at 1300 rpm for 5-7 minutes, washed once with PBS with 1% BSA, counted and pulsed with 40 μg/ml of peptide at a cell concentration of 1-2×10^6/ml in the presence of 3 μg/ml β2-microglobulin for 4 hours at 20° C. The DC are then irradiated (4,200 rads), washed 1 time with medium and counted again.
Setting up induction cultures: 0.25 ml cytokine-generated DC (@1×10^5 cells/ml) are co-cultured with 0.25 ml of CD8+ T-cells (@2×10^6 cell/ml) in each well of a 48-well plate in the presence of 10 ng/ml of IL-7. Recombinant human IL10 is added the next day at a final concentration of 10 ng/ml and rhuman IL2 is added 48 hours later at 10 IU/mL.
Restimulation of the induction cultures with peptide-pulsed adherent cells: Seven and fourteen days after the primary induction the cells are restimulated with peptide-pulsed adherent cells. The PBMCS are thawed and washed twice with RPMI and DNAse. The cells are resuspended at 5×10^6 cells/ml and irradiated at ˜4200 rads. The PBMCs are plated at 2×10^6 in 0.5 ml complete medium per well and incubated for 2 hours at 37° C. The plates are washed twice with RPMI by tapping the plate gently to remove the nonadherent cells and the adherent cells pulsed with 10 μg/ml of peptide in the presence of 3 μg/ml β2 microglobulin in 0.25 ml RPMI/5% AB per well for 2 hours at 37° C. Peptide solution from each well is aspirated and the wells are washed once with RPMI. Most of the media is aspirated from the induction cultures (CD8+ cells) and brought to 0.5 ml with fresh media. The cells are then transferred to the wells containing the peptide-pulsed adherent cells. Twenty four hours later rhuman IL10 is added at a final concentration of 10 ng/ml and rhuman IL2 is added the next day and again 2-3 days later at 50 IU/ml (Tsai et al., Critical Reviews in Immunology 18(1-2):65-75, 1998). Seven days later the cultures are assayed for CTL activity in a ^51Cr release assay. In some experiments the cultures are assayed for peptide-specific recognition in the in situ IFNγ ELISA at the time of the second restimulation followed by assay of endogenous recognition 7 days later. […]

[2] = target: HLA-A*0201 (Homo sapiens, UniProt P04439, D140Y/D185E/D98H/E176V/E277Q/G131W/G231S/I119V/I121R/I166T/I218V/L300P/L318F/N151K/N90K/P208A/P217A/Q86G/Q94H/R138H/R169H/T345S); assay: HLA class I binding assay, purified HLA, inhibition of 125I-labelled probe peptide; details: Table XXII group headings ≦ 200 nM / > 200 nM, binding to HLA-A*0201

| IC50 ([2]; read-out: Binding affinity) [nM] | Compound | A2 peptide [1] | further results |
| --- | --- | --- | --- |
|  | CC[C@H](C)[C@H](NC(=O)[C@H](CO)NC(=O)[C@@H]1CCCN1C(=O)[C@H](CC(C)C)NC(=O)CN)C(=O)N1CCC[C@H]1C(=O)N[C@H](C(=O)N[C@@H](Cc1c[nH]cn1)C(=O)N1CCC[C@H]1C(=O)N[C@H](C(=O)O)C(C)C)C(C)C [Peptide 1389.24] | 4/4 | A2 native [1]: 3/4 |
|  | CC[C@H](C)[C@H](N)C(=O)N[C@@H](CCSC)C(=O)N[C@@H](Cc1ccc(O)cc1)C(=O)N[C@@H](CO)C(=O)N[C@@H](C)C(=O)N[C@@H](Cc1c[nH]cn1)C(=O)N[C@@H](CC(=O)O)C(=O)N[C@H](C(=O)N[C@H](C(=O)N[C@H](C(=O)O)C(C)C)[C@@H](C)O)[C@@H](C)O [Peptide 1097.05] | 3/3 |  |
|  | CC(C)C[C@H](NC(=O)[C@H](CC(C)C)NC(=O)CNC(=O)[C@H](CC(N)=O)NC(=O)[C@H](Cc1ccc(O)cc1)NC(=O)[C@@H](NC(=O)[C@H](CC(=O)O)NC(=O)[C@H](CC(C)C)NC(=O)[C@H](C)N)C(C)C)C(=O)O [PAP.299] |  | IC50 ([2]; Binding affinity): ≤ 200 nM |
|  | CC[C@H](C)[C@H](NC(=O)[C@H](Cc1c[nH]c2ccccc12)NC(=O)[C@@H](NC(=O)[C@@H](NC(=O)[C@H](CO)NC(=O)[C@H](CC(C)C)NC(=O)[C@@H](NC(=O)[C@H](CC(C)C)NC(=O)[C@@H](N)Cc1ccccc1)[C@@H](C)O)C(C)C)[C@@H](C)O)C(=O)NCC(=O)N[C@H](C(=O)O)C(C)C [Peptide 1419.27] | 3/3 | A2 native [1]: 3/3 |
|  | CSCC[C@H](NC(=O)[C@H](CC(=O)O)NC(=O)[C@H](CC(N)=O)NC(=O)[C@H](CO)NC(=O)[C@H](CC(C)C)NC(=O)[C@H](CC(C)C)NC(=O)[C@H](Cc1c[nH]cn1)NC(=O)[C@H](CC(C)C)NC(=O)[C@@H](N)CO)C(=O)N[C@@H](CS)C(=O)N[C@@H](C)C(=O)O [Peptide 1419.14] | 1/3 |  |
| ≤ 200 | CC(C)C[C@H](NC(=O)[C@H](CO)NC(=O)[C@H](CC(C)C)NC(=O)[C@H](CO)NC(=O)[C@H](C)NC(=O)[C@H](C)NC(=O)[C@H](CCCNC(=N)N)NC(=O)[C@H](C)NC(=O)[C@H](CC(C)C)NC(=O)[C@H](CC(C)C)NC(=O)[C@@H](N)CC(C)C)C(=O)O [PAP.6] |  |  |
|  | CC(C)C[C@H](NC(=O)[C@H](Cc1ccccc1)NC(=O)[C@H](Cc1ccccc1)NC(=O)CNC(=O)CNC(=O)[C@H](C)NC(=O)[C@H](CC(C)C)NC(=O)[C@@H](N)C(C)C)C(=O)N[C@H](C(=O)O)C(C)C [Peptide 1389.20] | 1/2 | A2 native [1]: 1/2 |
|  | CC(C)C[C@H](NC(=O)[C@H](C)N)C(=O)N[C@@H](Cc1ccccc1)C(=O)N1CCC[C@H]1C(=O)N1CCC[C@H]1C(=O)N[C@@H](CCC(=O)O)C(=O)NCC(=O)N[C@H](C(=O)N[C@@H](CO)C(=O)N[C@H](C(=O)O)C(C)C)C(C)C [Peptide 1419.61] | 1/3 | A2 native [1]: 1/3 |
|  | CC(C)C[C@H](NC(=O)[C@@H]1CCCN1)C(=O)N[C@H](C(=O)N[C@@H](CS)C(=O)N[C@@H](CC(N)=O)C(=O)NCC(=O)N[C@H](C(=O)N[C@@H](CC(C)C)C(=O)N[C@@H](CCC(N)=O)C(=O)NCC(=O)N[C@H](C(=O)O)C(C)C)C(C)C)C(C)C [Peptide 1419.17] | 2/2 | A2 native [1]: 2/2 |
| ≤ 200 | CC(C)C[C@H](NC(=O)[C@H](Cc1ccccc1)NC(=O)[C@H](Cc1ccccc1)NC(=O)CNC(=O)CNC(=O)[C@H](C)NC(=O)[C@H](CC(C)C)NC(=O)[C@@H](NC(=O)[C@@H](N)CC(C)C)C(C)C)C(=O)O [PSM.26] |  |  |
|  | CSCC[C@H](NC(=O)[C@H](CC(C)C)NC(=O)[C@@H](N)CC(=O)O)C(=O)N[C@@H](CC(C)C)C(=O)N[C@@H](CC(C)C)C(=O)N[C@@H](CCCNC(=N)N)C(=O)N[C@@H](CC(C)C)C(=O)N[C@@H](CO)C(=O)N[C@@H](CCC(=O)O)C(=O)N1CCC[C@H]1C(=O)N[C@H](C(=O)O)C(C)C [Peptide 1419.13] | 2/2 | A2 native [1]: 2/2 |
|  | CSCC[C@H](NC(=O)[C@H](CC(C)C)NC(=O)[C@H](CCC(N)=O)NC(=O)[C@H](CC(=O)O)NC(=O)[C@H](CC(N)=O)NC(=O)[C@H](CCSC)NC(=O)[C@@H](N)CCSC)C(=O)N[C@@H](Cc1ccccc1)C(=O)N[C@@H](CC(C)C)C(=O)O [Peptide 1126.01] | 2/2 |  |
| ≤ 200 | CC(C)C[C@H](NC(=O)[C@@H](N)Cc1ccccc1)C(=O)N[C@@H](CC(N)=O)C(=O)N[C@@H](CCC(=O)O)C(=O)N[C@@H](CO)C(=O)N[C@@H](Cc1ccc(O)cc1)C(=O)N[C@@H](CCCCN)C(=O)N[C@@H](Cc1c[nH]cn1)C(=O)N[C@@H](CCC(=O)O)C(=O)N[C@@H](CCC(N)=O)C(=O)N[C@H](C(=O)O)C(C)C [PAP.92] |  |  |
|  | CSCC[C@H](NC(=O)[C@H](CC(C)C)NC(=O)[C@H](CCC(N)=O)NC(=O)[C@H](CC(=O)O)NC(=O)[C@H](CC(N)=O)NC(=O)[C@H](CCSC)NC(=O)[C@H](CCSC)NC(=O)[C@@H](N)CCCNC(=N)N)C(=O)N[C@@H](Cc1ccccc1)C(=O)N[C@@H](CC(C)C)C(=O)O [Peptide 1126.06] | 1/1 |  |
| ≤ 200 | CC[C@H](C)[C@H](NC(=O)[C@H](Cc1ccccc1)NC(=O)[C@H](C)NC(=O)[C@H](CCCNC(=N)N)NC(=O)[C@H](CCC(=O)O)NC(=O)[C@H](CC(C)C)NC(=O)[C@H](Cc1ccccc1)NC(=O)[C@H](CCSC)NC(=O)[C@H](CC(C)C)NC(=O)[C@@H](N)CCC(N)=O)C(=O)O [PSM.667] |  |  |
|  | CSCC[C@H](NC(=O)[C@H](C)NC(=O)[C@H](CO)NC(=O)[C@H](CCSC)NC(=O)[C@H](CC(C)C)NC(=O)[C@@H](N)[C@@H](C)O)C(=O)N[C@H](C(=O)N[C@@H](CC(N)=O)C(=O)N[C@@H](CC(C)C)C(=O)O)[C@@H](C)O [Peptide 1177.01] | 2/2 |  |
|  | CC(C)C[C@H](NC(=O)[C@H](CC(C)C)NC(=O)[C@H](Cc1ccccc1)NC(=O)[C@H](Cc1ccccc1)NC(=O)CNC(=O)CNC(=O)[C@H](C)NC(=O)[C@H](CC(C)C)NC(=O)[C@@H](N)C(C)C)C(=O)O [Peptide 1126.10] | 1/2 |  |
| > 200 | CC(C)C[C@H](NC(=O)CN)C(=O)N[C@@H](CC(C)C)C(=O)NCC(=O)N[C@@H](CO)C(=O)N[C@H](C(=O)N[C@@H](CCC(=O)O)C(=O)N[C@@H](Cc1c[nH]c2ccccc12)C(=O)N[C@@H](C)C(=O)O)[C@@H](C)O [PSM.427] |  |  |
| > 200 | CC(C)C[C@H](NC(=O)[C@@H](N)CCCCN)C(=O)NCC(=O)N[C@@H](CO)C(=O)NCC(=O)N[C@@H](CC(N)=O)C(=O)N[C@@H](CC(=O)O)C(=O)N[C@@H](Cc1ccccc1)C(=O)N[C@@H](CCC(=O)O)C(=O)N[C@H](C(=O)O)C(C)C [PSM.514] |  |  |
| > 200 | CC(C)C[C@H](NC(=O)[C@H](Cc1ccccc1)NC(=O)[C@H](Cc1ccccc1)NC(=O)CNC(=O)CNC(=O)[C@H](C)NC(=O)[C@H](CC(C)C)NC(=O)[C@@H](NC(=O)[C@H](CC(C)C)NC(=O)[C@H](C)N)C(C)C)C(=O)O [PSM.25] |  |  |
| > 200 | CC(C)C[C@H](NC(=O)[C@@H](N)CC(C)C)C(=O)N[C@@H](Cc1c[nH]cn1)C(=O)N[C@@H](CCC(=O)O)C(=O)N[C@H](C(=O)N[C@@H](CC(=O)O)C(=O)N[C@@H](CO)C(=O)N[C@@H](C)C(=O)N[C@H](C(=O)O)C(C)C)[C@@H](C)O [PSM.4] |  |  |

Source: patent US20040037843A1, “Inducing cellular immune responses to prostate cancer antigens using peptide and nucleic acid compositions” (priority 2003, published 2004)
